# Data: the supplement of paper PMC10307832
# What was measured:
# Experiment in all cases: relative viability (nuclei count vs DMSO), 5 days (fraction); higher = more cells survive
# [1] = system: A-427
# Outline: (§1)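 One day after seeding in 1536-well plates, lung cancer cell lines were dosed by pin tool. Dosing was either single-drug or a fixed anchor-drug dose plus five library-drug doses (not always all listed) in √10 steps. After 5 days, nuclei were stained in one fix-and-stain step and counted on 4× images, and relative viability is the nuclei count of treated wells over that of vehicle wells, given as the median of duplicate plates.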
# [2] = system: BEN
# Outline: as §1
# [3] = system: EKVX
# Outline: as §1
# [4] = system: LC-2-ad
# Outline: as §1
# [5] = system: LCLC-97TM1
# Outline: as §1
# [6] = system: LOU-NH91
# Outline: as §1
# [7] = system: LU99A
# Outline: as §1
# [8] = system: NCI-H1355
# Outline: as §1
# [9] = system: NCI-H1650
# Outline: as §1
# [10] = system: NCI-H1666
# Outline: as §1
# [11] = system: NCI-H1793
# Outline: as §1
# [12] = system: NCI-H1915
# Outline: as §1
# [13] = system: NCI-H1993
# Outline: as §1
# [14] = system: NCI-H2228
# Outline: as §1
# [15] = system: NCI-H2347
# Outline: as §1
# [16] = system: NCI-H23
# Outline: as §1
# [17] = system: NCI-H460
# Outline: as §1
# [18] = system: NCI-H520
# Outline: as §1
# [19] = system: NCI-H650
# Outline: as §1
# [20] = system: NCI-H838
# Outline: as §1
# [21] = system: PC-3 [JPC-3]
# Outline: as §1
# [22] = system: RERF-LC-KJ
# Outline: as §1
# [23] = system: SW 1573
# Outline: as §1
# [24] = system: IA-LM
# Outline: as §1
smiles,measurement,setting,value
CCCCCCCCCCCC1=C(O)C(=O)C=C(O)C1=O [Embelin] + Cc1nc(Nc2ncc(C(=O)Nc3c(C)cccc3Cl)s2)cc(N2CCN(CCO)CC2)n1 [Dasatinib] (partner 0.075 µM),relative viability,[1]; first compound 0.08 µM,0.689
same,relative viability,[1]; first compound 0.8 µM,0.805
same,relative viability,[1]; first compound 2.53 µM,0.689
same,relative viability,[1]; first compound 8 µM,0.727
same,relative viability,[2]; first compound 0.08 µM,0.355
same,relative viability,[2]; first compound 0.8 µM,0.359
same,relative viability,[2]; first compound 2.53 µM,0.259
same,relative viability,[2]; first compound 8 µM,0.362
same,relative viability,[3]; first compound 0.08 µM,0.564
same,relative viability,[3]; first compound 0.8 µM,0.724
same,relative viability,[3]; first compound 2.53 µM,0.576
same,relative viability,[3]; first compound 8 µM,0.555
same,relative viability,[4]; first compound 0.08 µM,0.596
same,relative viability,[4]; first compound 0.8 µM,0.837
same,relative viability,[4]; first compound 2.53 µM,0.823
same,relative viability,[4]; first compound 8 µM,0.412
same,relative viability,[5]; first compound 0.08 µM,1.05
same,relative viability,[5]; first compound 0.8 µM,0.668
same,relative viability,[5]; first compound 2.53 µM,0.916
same,relative viability,[5]; first compound 8 µM,0.912
same,relative viability,[6]; first compound 0.08 µM,0.567
same,relative viability,[6]; first compound 0.8 µM,0.624
same,relative viability,[6]; first compound 2.53 µM,0.561
same,relative viability,[6]; first compound 8 µM,0.531
same,relative viability,[7]; first compound 0.08 µM,0.572
same,relative viability,[7]; first compound 0.8 µM,0.759
same,relative viability,[7]; first compound 2.53 µM,0.643
same,relative viability,[7]; first compound 8 µM,0.515
same,relative viability,[8]; first compound 0.08 µM,0.753
same,relative viability,[8]; first compound 0.8 µM,0.808
same,relative viability,[8]; first compound 2.53 µM,0.845
same,relative viability,[8]; first compound 8 µM,0.586
same,relative viability,[9]; first compound 0.08 µM,0.348
same,relative viability,[9]; first compound 0.8 µM,0.408
same,relative viability,[9]; first compound 2.53 µM,0.337
same,relative viability,[9]; first compound 8 µM,0.315
same,relative viability,[10]; first compound 0.08 µM,0.793
same,relative viability,[10]; first compound 0.8 µM,0.88
same,relative viability,[10]; first compound 2.53 µM,0.839
same,relative viability,[10]; first compound 8 µM,0.852
same,relative viability,[11]; first compound 0.08 µM,0.397
same,relative viability,[11]; first compound 0.8 µM,0.432
same,relative viability,[11]; first compound 2.53 µM,0.446
same,relative viability,[11]; first compound 8 µM,0.334
same,relative viability,[12]; first compound 0.08 µM,0.309
same,relative viability,[12]; first compound 0.8 µM,0.361
same,relative viability,[12]; first compound 2.53 µM,0.321
same,relative viability,[12]; first compound 8 µM,0.335
same,relative viability,[13]; first compound 0.08 µM,0.641
same,relative viability,[13]; first compound 0.8 µM,0.602
same,relative viability,[13]; first compound 2.53 µM,0.535
same,relative viability,[13]; first compound 8 µM,0.509
same,relative viability,[14]; first compound 0.08 µM,0.503
same,relative viability,[14]; first compound 0.8 µM,0.618
same,relative viability,[14]; first compound 2.53 µM,0.592
same,relative viability,[14]; first compound 8 µM,0.396
same,relative viability,[15]; first compound 0.08 µM,0.332
same,relative viability,[15]; first compound 0.8 µM,0.33
same,relative viability,[15]; first compound 2.53 µM,0.296
same,relative viability,[15]; first compound 8 µM,0.309
same,relative viability,[16]; first compound 0.08 µM,0.82
same,relative viability,[16]; first compound 0.8 µM,0.755
same,relative viability,[16]; first compound 2.53 µM,1.08
same,relative viability,[16]; first compound 8 µM,0.612
same,relative viability,[17]; first compound 0.08 µM,0.58
same,relative viability,[17]; first compound 0.8 µM,0.57
same,relative viability,[17]; first compound 2.53 µM,0.571
same,relative viability,[17]; first compound 8 µM,0.416
same,relative viability,[18]; first compound 0.08 µM,0.245
same,relative viability,[18]; first compound 0.8 µM,0.188
same,relative viability,[18]; first compound 2.53 µM,0.307
same,relative viability,[18]; first compound 8 µM,0.132
same,relative viability,[19]; first compound 0.08 µM,0.443
same,relative viability,[19]; first compound 0.8 µM,0.485
same,relative viability,[19]; first compound 2.53 µM,0.368
same,relative viability,[19]; first compound 8 µM,0.383
same,relative viability,[20]; first compound 0.08 µM,0.312
same,relative viability,[20]; first compound 0.8 µM,0.316
same,relative viability,[20]; first compound 2.53 µM,0.248
same,relative viability,[20]; first compound 8 µM,0.224
same,relative viability,[21]; first compound 0.08 µM,1.02
same,relative viability,[21]; first compound 0.8 µM,1.05
same,relative viability,[21]; first compound 2.53 µM,1.12
same,relative viability,[21]; first compound 8 µM,0.966
same,relative viability,[22]; first compound 0.08 µM,0.82
same,relative viability,[22]; first compound 0.8 µM,0.983
same,relative viability,[22]; first compound 2.53 µM,0.81
same,relative viability,[22]; first compound 8 µM,0.704
same,relative viability,[23]; first compound 0.08 µM,0.406
same,relative viability,[23]; first compound 0.8 µM,0.637
same,relative viability,[23]; first compound 2.53 µM,0.458
same,relative viability,[23]; first compound 8 µM,0.725
CCCCCCCCCCCC1=C(O)C(=O)C=C(O)C1=O [Embelin] + C[C@]1(O)C[C@@H](c2nc(-c3ccc4ccc(-c5ccccc5)nc4c3)c3c(N)nccn32)C1 [Linsitinib] (partner 1 µM),relative viability,[1]; first compound 0.08 µM,1.11
same,relative viability,[1]; first compound 0.8 µM,1.12
same,relative viability,[1]; first compound 2.53 µM,1.12
same,relative viability,[1]; first compound 8 µM,1.09
same,relative viability,[2]; first compound 0.08 µM,0.976
same,relative viability,[2]; first compound 0.8 µM,1.25
same,relative viability,[2]; first compound 2.53 µM,1.09
same,relative viability,[2]; first compound 8 µM,0.898
same,relative viability,[3]; first compound 0.08 µM,0.967
same,relative viability,[3]; first compound 0.8 µM,1.09
same,relative viability,[3]; first compound 2.53 µM,1.2
same,relative viability,[3]; first compound 8 µM,1.06
same,relative viability,[24]; first compound 0.08 µM,0.425
same,relative viability,[24]; first compound 0.8 µM,0.799
same,relative viability,[24]; first compound 2.53 µM,0.536
same,relative viability,[24]; first compound 8 µM,0.241
same,relative viability,[4]; first compound 0.08 µM,0.822
same,relative viability,[4]; first compound 0.8 µM,0.891
same,relative viability,[4]; first compound 2.53 µM,0.526
same,relative viability,[4]; first compound 8 µM,0.913
same,relative viability,[5]; first compound 0.8 µM,0.239
same,relative viability,[5]; first compound 2.53 µM,0.233
same,relative viability,[5]; first compound 8 µM,0.204
same,relative viability,[6]; first compound 0.08 µM,1.02
same,relative viability,[6]; first compound 0.8 µM,1.23
same,relative viability,[6]; first compound 2.53 µM,1.03
same,relative viability,[6]; first compound 8 µM,0.877
same,relative viability,[7]; first compound 0.08 µM,0.537
same,relative viability,[7]; first compound 0.8 µM,0.618
same,relative viability,[7]; first compound 2.53 µM,0.552
same,relative viability,[7]; first compound 8 µM,0.472
same,relative viability,[8]; first compound 0.08 µM,0.757
same,relative viability,[8]; first compound 0.8 µM,0.813
same,relative viability,[8]; first compound 2.53 µM,0.968
same,relative viability,[8]; first compound 8 µM,0.724
same,relative viability,[10]; first compound 0.08 µM,0.898
same,relative viability,[10]; first compound 0.8 µM,0.995
same,relative viability,[10]; first compound 2.53 µM,0.83
same,relative viability,[10]; first compound 8 µM,0.97
same,relative viability,[11]; first compound 0.08 µM,0.736
same,relative viability,[11]; first compound 0.8 µM,1.15
same,relative viability,[11]; first compound 2.53 µM,1.5
same,relative viability,[11]; first compound 8 µM,0.853
same,relative viability,[12]; first compound 0.08 µM,1.17
same,relative viability,[12]; first compound 0.8 µM,1.11
same,relative viability,[12]; first compound 2.53 µM,1.13
same,relative viability,[12]; first compound 8 µM,1.12
same,relative viability,[13]; first compound 0.08 µM,0.734
same,relative viability,[13]; first compound 0.8 µM,0.807
same,relative viability,[13]; first compound 2.53 µM,0.764
same,relative viability,[13]; first compound 8 µM,0.771
same,relative viability,[14]; first compound 0.08 µM,0.636
same,relative viability,[14]; first compound 0.8 µM,0.781
same,relative viability,[14]; first compound 2.53 µM,1.09
same,relative viability,[14]; first compound 8 µM,0.59
same,relative viability,[15]; first compound 0.08 µM,0.968
same,relative viability,[15]; first compound 0.8 µM,1.03
same,relative viability,[15]; first compound 2.53 µM,1.09
same,relative viability,[15]; first compound 8 µM,0.958
same,relative viability,[16]; first compound 0.08 µM,0.548
same,relative viability,[16]; first compound 0.8 µM,0.547
same,relative viability,[16]; first compound 2.53 µM,0.609
same,relative viability,[16]; first compound 8 µM,0.652
same,relative viability,[17]; first compound 0.08 µM,0.808
same,relative viability,[17]; first compound 0.8 µM,0.988
same,relative viability,[17]; first compound 2.53 µM,1.18
same,relative viability,[17]; first compound 8 µM,0.69
same,relative viability,[18]; first compound 0.08 µM,1
same,relative viability,[18]; first compound 0.8 µM,0.849
same,relative viability,[18]; first compound 2.53 µM,0.869
same,relative viability,[18]; first compound 8 µM,1.03
same,relative viability,[19]; first compound 0.08 µM,0.812
same,relative viability,[19]; first compound 0.8 µM,1.41
same,relative viability,[19]; first compound 2.53 µM,0.653
same,relative viability,[19]; first compound 8 µM,0.716
same,relative viability,[20]; first compound 0.08 µM,1.06
same,relative viability,[20]; first compound 0.8 µM,1.13
same,relative viability,[20]; first compound 2.53 µM,1.03
same,relative viability,[20]; first compound 8 µM,1.07
same,relative viability,[21]; first compound 0.08 µM,0.972
same,relative viability,[21]; first compound 0.8 µM,0.967
same,relative viability,[21]; first compound 2.53 µM,0.947
same,relative viability,[21]; first compound 8 µM,0.983
same,relative viability,[22]; first compound 0.08 µM,0.905
same,relative viability,[22]; first compound 0.8 µM,0.89
same,relative viability,[22]; first compound 2.53 µM,0.961
same,relative viability,[22]; first compound 8 µM,0.908
same,relative viability,[23]; first compound 0.08 µM,0.842
same,relative viability,[23]; first compound 0.8 µM,0.924
same,relative viability,[23]; first compound 2.53 µM,0.75
same,relative viability,[23]; first compound 8 µM,0.832
